For orientation: Kd means the concentration at which binding is half-saturated.

The assay addresses CYP154C7. In words: UV/Vis spectral titration, type I spin shift. In kind it is binding, Streptomyces sp. PAMC26508.

As for `C[C@]12CC[C@H]3[C@@H](CCC4=CC(=O)CC[C@@]43C)[C@@H]1CC[C@@H]2O` [testosterone], the dissociation constant (Kd) worked out at 0.304 ± 0.07 µM.
Turning to `C[C@]12CCC(=O)C=C1CC[C@@H]1[C@@H]2C(=O)C[C@@]2(C)[C@H]1CC[C@]2(O)C(=O)CO` [cortisone], the equilibrium dissociation constant (Kd) was 2 ± 0.34 µM.
As to `C[C@]12CCC(=O)C=C1CC[C@@H]1[C@@H]2CC[C@]2(C)C(=O)CC[C@@H]12` [androstenedione], the Kd was 0.201 ± 0.043 µM.

(Values after publication PMC11544072 (Heliyon, 2024).)
